Source: EP4644383A1 (Jiangsu Yahong Meditech Co., Ltd., priority 2022, dated 2024)
Like-named read-outs stand apart in the source and are kept apart here.

Columns and labels:
FGFR1 = target: T1, FGFR1 (Homo sapiens, UniProt P11362); assay: FGFR1 kinase activity inhibition assay (LanthaScreen TR-FRET); format: biochemical
T1 construct: cytoplasmic domain [398-822 (terminal) amino acids]; purchased Carna 08-133
How it was run: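 Emission ratio 520 nm/495 nm by TR-FRET after stopping reaction with 10 mM EDTA and 60 min incubation at 22°C. Inhibition normalized between no-enzyme (min) and DMSO (max) controls, then fitted to a four-parameter curve (Top, Bottom, HillSlope).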

FGFR3 = target: T2, FGFR3 (Homo sapiens, UniProt P22607); assay: FGFR3 kinase activity inhibition assay (LanthaScreen TR-FRET); format: biochemical; conditions: for Selectivity (X) FGFR1/FGFR3: ratio of IC50 FGFR1/FGFR3, selectivity towards FGFR3
T2 construct: FGFR3's cytoplasmic domain [436-806 (terminal) amino acids]; purchased Carna 08-135
T2 sequence (P22607 436-806): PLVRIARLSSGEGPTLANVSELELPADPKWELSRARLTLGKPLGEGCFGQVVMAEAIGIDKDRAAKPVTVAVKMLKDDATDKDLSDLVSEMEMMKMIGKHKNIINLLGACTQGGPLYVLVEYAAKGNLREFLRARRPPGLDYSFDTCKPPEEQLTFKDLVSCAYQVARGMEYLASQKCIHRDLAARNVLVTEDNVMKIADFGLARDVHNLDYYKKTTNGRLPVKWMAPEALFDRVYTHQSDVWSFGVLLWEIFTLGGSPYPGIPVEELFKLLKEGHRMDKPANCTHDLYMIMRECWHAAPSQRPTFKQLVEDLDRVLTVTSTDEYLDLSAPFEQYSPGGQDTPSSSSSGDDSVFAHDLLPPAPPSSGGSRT
How it was run: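 Read-out is TR-FRET, with the 520 nm/495 nm emission ratio normalised to DMSO (max) and enzyme-free (min) controls. Enzyme was the FGFR3 cytoplasmic domain, residues 436-806. EDTA (10 mM) stopped the reaction, followed by 60 min at 22 °C before reading.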

[1] = FGFR1 kinase, TR-FRET, read-out: IC50 (nM) FGFR1
[2] = FGFR3 kinase, TR-FRET, read-out: IC50 (nM) FGFR3

T1 sequence (P11362 398-822): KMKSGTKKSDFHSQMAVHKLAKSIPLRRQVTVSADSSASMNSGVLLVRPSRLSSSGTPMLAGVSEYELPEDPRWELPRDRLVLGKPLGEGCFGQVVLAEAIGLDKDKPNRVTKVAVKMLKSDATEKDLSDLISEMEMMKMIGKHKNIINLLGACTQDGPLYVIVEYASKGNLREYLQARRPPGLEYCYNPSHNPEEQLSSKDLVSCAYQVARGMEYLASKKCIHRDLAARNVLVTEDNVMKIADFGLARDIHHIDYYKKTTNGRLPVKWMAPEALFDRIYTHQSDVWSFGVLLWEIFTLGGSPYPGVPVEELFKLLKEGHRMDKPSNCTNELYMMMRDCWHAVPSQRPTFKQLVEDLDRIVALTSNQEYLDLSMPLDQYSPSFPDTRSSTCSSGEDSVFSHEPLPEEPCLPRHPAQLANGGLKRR

Row | Selectivity (X) FGFR1/FGFR3 (FGFR3) | IC50 (FGFR1; [1]) | IC50 (FGFR3; [2]) | Selectivity (X) FGFR4/FGFR3 (FGFR3; ratio of IC50 FGFR4/FGFR3, selectivity towards FGFR3) | Structure (SMILES) | IC50 (FGFR1) | IC50 (FGFR3)
1 | A (A represents 1 ≤ multiple X<20) | 10 to 100 nM | 1 to 10 nM | – | CC(Oc1ccc2[nH]nc(-c3cnn(C)c3)c2c1)c1nccn2nccc12 (stereo not shown) [Example 176, 4-(1-((3-(1-methyl-1H-pyrazol-4-yl)-1H-indazol-5-yl)oxy)ethyl)py razolo[1,5-a]pyrazine] | – | –
2 | B (B represents 20 ≤ multiple X<50) | 10 to 100 nM | 1 to 10 nM | – | CC(Oc1ccc2[nH]nc(-c3cnn(C4CN(C(=N)N)C4)c3)c2c1)c1cccc2nccnc12 (stereo not shown) [Example 177, 3-(4-(5-(1-(quinoxalin-5-yl)ethoxy)-1H-indazol-3-yl)-1H-pyrazol-1-yl)azetidine-1-carboximidamide] | – | –
3 | B (B represents 20 ≤ multiple X<50) | 1 to 10 nM | < 1 nM | – | CC(Oc1ccc2[nH]nc(-c3cnn(C4CN(C(=O)N(C)C)C4)c3)c2c1)c1cccc2nccnc12 (stereo not shown) [Example 178, N,N-dimethyl-3-(4-(5-(1-(quinoxalin-5-yl)ethoxy)-1H-indazol-3-yl)-1H-pyrazol-1-yl)azetidine-1-carboxamide] | – | –
4 | B (B represents 20 ≤ multiple X<50) | 10 to 100 nM | < 1 nM | – | CC(Oc1ccc2[nH]nc(-c3cnn(CCCS(N)(=O)=O)c3)c2c1)c1cccc2nccnc12 (stereo not shown) [Example 179, 3-(4-(5-(1-(quinoxalin-5-yl)ethoxy)-1H-indazol-3-yl)-1H-pyrazol-1-yl)propane-1-sulfonamide] | – | –
5 | A (A represents 1 ≤ multiple X<20) | 1 to 10 nM | 1 to 10 nM | – | CC(Oc1ccc2[nH]nc(-c3cnn(C4CN(C(=O)CC#N)C4)c3)c2c1)c1cccc2nccnc12 (stereo not shown) [Example 180, 3-oxo-3-(3-(4-(5-(1-(quinoxalin-5-yl)ethoxy)-1H-indazol-3-yl)-1H-pyrazol-1-yl)azetidin-1-yl)propionitrile] | – | –
6 | A (A represents 1 ≤ multiple X<20) | 1 to 10 nM | < 1 nM | A (A represents 1 ≤ multiple X<20) | CC(Oc1ccc2[nH]nc(-c3cnn(C)c3)c2c1)c1cccn2ncc(C#N)c12 (stereo not shown) [Example 186, 4-(1-((3-(1-methyl-1H-pyrazol-4-yl)-1H-indazol-5-yl)oxy)ethyl)py razolo[1,5-a]pyridine-3-carbonitrile] | – | –
7 | B (B represents 20 ≤ multiple X<50) | 10 to 100 nM | < 1 nM | – | Cc1cc(C(C)Oc2ccc3[nH]nc(-c4cnn(C5CN(C(=O)CO)C5)c4)c3c2)c2cccnc2c1 (stereo not shown) [Example 192, 2-hydroxy-1-(3-(4-(5-(1-(7-methylquinolin-5-yl)ethoxy)-1H-indazol-3-yl)-1-pyrazol-1-yl)azetidin-1-yl)ethan-1-one] | – | –
8 | A (A represents 1 ≤ multiple X<20) | 1 to 10 nM | < 1 nM | – | CNCC(=O)N1CC(n2cc(-c3n[nH]c4ccc(OC(C)c5cccc6nccnc56)cc34)cn2)C1 (stereo not shown) [Example 193, 2-(methylamino)-1-(3-(4-(5-(1-(quinoxalin-5-yl)ethoxy)-1H-indazol-3-yl)-1H-pyrazol-1-yl)azetidin-1-yl)ethan-1-one] | – | –
9 | B (B represents 20 ≤ multiple X<50) | 10 to 100 nM | < 1 nM | – | CC(Oc1ccc2[nH]nc(-c3cnn(C4CC(N(C)C(=O)C(C)(C)N)C4)c3)c2c1)c1cccc2nccnc12 (stereo not shown) [Example 196, 2-amino-N,2-dimethyl-N-(3-(4-(5-(1-(quinoxalin-5-yl)ethoxy)-1H-indazol-3-yl)-1H-pyrazol-1-yl)cyclobutyl)propanamide] | – | –
10 | B (B represents 20 ≤ multiple X<50) | 10 to 100 nM | < 1 nM | – | CC(Oc1ccc2[nH]nc(-c3cnn(C4CC(N(C)C(=O)C(C)(C)O)C4)c3)c2c1)c1cccc2nccnc12 (stereo not shown) [Example 197, 2-hydroxy-N,2-dimethyl-N-(3-(4-(5-(1-(quinoxalin-5-yl)ethoxy)-1H-indazol-3-yl)-1H-pyrazol-1-yl)cyclobutyl)prop anamide] | – | –
11 | B (B represents 20 ≤ multiple X<50) | 10 to 100 nM | < 1 nM | – | CC(Oc1ccc2[nH]nc(-c3cnn(C4CC(N(C)S(C)(=O)=O)C4)c3)c2c1)c1cccc2nccnc12 (stereo not shown) [Example 198, N-methyl-N-(3-(4-(5-(1-(quinoxalin-5-yl)ethoxy)-1H-indazol-3-yl)-1H-pyrazol-1-yl)cyclobutyl)methanesulfonamide] | – | –
12 | A (A represents 1 ≤ multiple X<20) | 10 to 100 nM | < 1 nM | – | CC(=O)N(C)C1CC(n2cc(-c3n[nH]c4ccc(OC(C)c5cccc6nccnc56)cc34)cn2)C1 (stereo not shown) [Example 199, N-methyl-N-(3-(4-(5-(1-(quinoxalin-5-yl)ethoxy)-1H-indazol-3-yl)-1H-pyrazol-1-yl)cyclobutyl)acet amide] | – | –
13 | B (B represents 20 ≤ multiple X<50) | 10 to 100 nM | 1 to 10 nM | – | CC(Oc1ccc2[nH]nc(-c3cnn(CC4CC(=O)N(C)C4)c3)c2c1)c1cccc2nccnc12 (stereo not shown) [Example 200, 1-methyl-4-((4-(5-(1-(quinoxalin-5-yl)ethoxy)-1H-indazol-3-yl)-1H-pyrazol-1-yl)methyl)pyrrolidin-2-one] | – | –
14 | A (A represents 1 ≤ multiple X<20) | 1 to 10 nM | < 1 nM | – | CC(Oc1ccc2[nH]nc(-c3cnn(C4CN(C(=O)NC5CC5)C4)c3)c2c1)c1cccc2nccnc12 (stereo not shown) [Example 201, N-cyclopropyl-3-(4-(5-(1-(quinoxalin-5-yl)ethoxy)-1H-indazol-3-yl)-1H-pyrazol-1-yl)azetidine-1-carboxamide] | – | –
15 | A (A represents 1 ≤ multiple X<20) | 1 to 10 nM | < 1 nM | – | CC(Oc1ccc2[nH]nc(-c3cnn(C4CC(S(C)(=N)=O)C4)c3)c2c1)c1cccc2nccnc12 (stereo not shown) [Example 202, imino(methyl)(3-(4-(5-(1-(quinoxalin-5-yl)ethoxy)-1H-indazol-3-yl)-1H-pyrazol-1-yl)cyclobutyl)-sulfanone] | – | –
16 | B (B represents 20 ≤ multiple X<50) | 1 to 10 nM | < 1 nM | – | CC(Oc1ccc2[nH]nc(-c3cnn(C4CN(C(=O)C5(N)CC5)C4)c3)c2c1)c1cccc2nccnc12 (stereo not shown) [Example 205, (1-aminocyclopropy 1)(3-(4-(5-(1-(quinoxalin-5-yl)ethoxy)-1H-indazol-3-yl)-1H-pyrazol-1-yl)azetidin-1-yl)methanone] | – | –
17 | C (C represents 50 ≤ multiple X<100) | 10 to 100 nM | 1 to 10 nM | – | CC(Oc1ccc2[nH]nc(-c3cnn(C4CN(C(=O)C(C)(C)O)C4)c3)c2c1)c1cc(Cl)cc2ncccc12 (stereo not shown) [Example 206, 1-(3-(4-(5-(1-(7-chloroquinolin-5-yl)ethoxy)-1H-indazol-3-yl)-1H-pyrazol-1-yl)azetidin-1-yl)-2-hydroxy-2-methylpropan-1-one] | – | –

Row | Structure (SMILES) | Selectivity (X) FGFR1/FGFR3 (FGFR3) | IC50 (FGFR1; [1]) | IC50 (FGFR3; [2]) | Selectivity (X) FGFR4/FGFR3 (FGFR3; ratio of IC50 FGFR4/FGFR3, selectivity towards FGFR3) | IC50 (FGFR1) | IC50 (FGFR3)
18 | CC(Oc1ccc2[nH]nc(-c3cnn(C4CN(C(=O)CN)C4)c3)c2c1)c1cccc2nccnc12 (stereo not shown) [Example 175, 2-amino-1-(3-(4-(5-(1-(quinoxalin-5-yl)ethoxy)-1H-indazol-3-yl)-1-pyrazol-1-yl)azetidin-1-yl)ethan-1-one] | A (A represents 1 ≤ multiple X<20) | – | – | – | 1 to 10 nM | < 1 nM
